According to patent US20190345536A1, “DETECTION METHOD FOR CHROMOSOMAL ABNORMALITIES AND METHOD FOR EVALUATING INDUCIBILITY” (Sumitomo Chemical Company, Limited, priority 2016, published 2019):
Like-named read-outs stand apart in the source and are kept apart here.

Key:
[1] = system: human iPS cell-derived T lymphocyte
[2] = system: human iPS cell-derived T lymphocyte; assay: In vitro chromosomal aberration test using human iPS cell-derived T lymphocyte (Example 5); type: cell-based
Experimental: As human iPS cell-derived T lymphocyte, redifferentiated T lymphocyte derived from human iPS cell line “2” described in Example 1(1) was used. […] A test substance was used at the treatment dose (final concentration in medium) described in Table 7. For the treatment, a test substance was dissolved in PBS at a 100-fold concentration of the final concentration in the medium for addition at 1% (v/v). Treatment with a test substance was performed according to the process described in (4). […] After about 14 hr of culture, the total amount of the cell suspension was recovered by pipetting. The cell suspension was diluted with Rh-5 medium to a cell density of 2.0×10^5 cells/mL and reseeded in a 12 well plate not coated with the antibody at 2 mL per well, and culture was continued. Treatments with MMC, EMS and MAN were performed according to the method described below. That is, after about 24 hr from the reseeding in (3), a solution (20 μL) obtained by dissolving a test substance in PBS at a 100-fold concentration of the final concentration described in Table 5 was further added and the cells were treated for 27 hr. Different from a test substance treatment group, PBS (20 μL) was added and a similar treatment was performed for 27 hr to prepare a negative control group. About 2 hr before completion of the treatment, KaryoMAX (registered trade mark) Colcemid™ Solution in HBSS (Life technologies) (20 μL) was added to the well (final concentration in medium: 0.1 μg/mL) to discontinue the cell cycle, and cells in mitotic metaphase were enriched. At the time of start of the test substance treatment, a part of the cell suspension of the negative control group was separated and the number of the cells was measured using a counting chamber. […] All remaining cell suspension was collected in a centrifuge tube and PBS was added to a total volume of 5 mL, after which the mixture was centrifuged (1000 rpm, 5 min). The supernatant was removed, 75 mM KCl heated to 37° C. was added and a hypotonic treatment was performed for 5 min. To the cell suspension after the hypotonicity was added 1/5 volume of a fixation solution (methanol:glacial acetic acid=3:1), and the cells were semi-fixed and centrifuged (4° C., 1000 rpm, 3 min). After centrifugation, the supernatant was substituted with a fresh fixation solution, and the cells were fixed and centrifuged (4° C., 1000 rpm, 3 min). The operation was repeated 3 times, and the cells were sufficiently fixed and centrifuged again (4° C., 1000 rpm, 3 min). The cells were suspended in a small amount of a fixation solution. […] Chromosomal abnormalities were classified into chromatid break, chromosome break, chromatid exchange, chromosome exchange, and other structural abnormalities and counted. […]

[3] = system: human iPS cell-derived T lymphocyte; assay: In vitro comet assay using human iPS cell-derived T lymphocyte (Example 6); type: cell-based
Experimental: As human iPS cell-derived T lymphocyte, redifferentiated T lymphocyte derived from human iPS cell line “2” described in Example 1(1) was used. […] A test substance was used at the treatment dose (final concentration in medium) described in Table 9. For the treatment, a test substance was dissolved in PBS at a 100-fold concentration of the final concentration in the medium for addition at 1% (v/v). A test substance was treated according to the process described in (4). […] Each well was washed twice with 1 mL of PBS, redifferentiated T lymphocytes derived from human iPS cell line described in (1) were suspended in Rh-medium at a cell density of 2.0×10^6 cells/mL and added to each well. After about 13 hr of culture, the total amount of the cell suspension was recovered by pipetting. The cell suspension was diluted with Rh-5 medium to a cell density of 2.0×10^5 cells/mL and reseeded in a 24 well plate not coated with the antibody at 1 mL per well, and culture was continued. Treatments with EMS and MAN were performed according to the method described below. That is, after about 24 hr from the reseeding in (3), a solution (10 μL) obtained by dissolving a test substance in PBS at a 100-fold concentration of the final concentration described in Table 9 was further added and the cells were treated for 4 hr. […] On completion of the additional culture, a part of the cell suspension was separated and the number of the cells was measured using a counting chamber. […] The prepared specimen was stained for nucleic acid using SYBR (registered trade mark) Gold, and observed under a fluorescence microscope at 200-fold magnification. 75 nuclei per specimen and 150 nuclei in two specimens per condition were imaged, % tail DNA was calculated using an image analyzer Comet Assay IV, and DNA damaging activity was determined. The % tail DNA was calculated as a percentage of the fluorescence brightness of the tail to the fluorescence brightness of the whole cell nucleus. […]

[4] = system: human iPS cell-derived T lymphocyte; assay: Proliferation ability of human iPS cell-derived T lymphocyte by various proliferation stimulation factors (ATP amount, CellTiter-Glo; Comparative Example 1); type: cell-based
[5] = from known documents (Kirkland 2016; Lasne 1984; Aardema 2006); cited from earlier work
[6] = from known documents (Kirkland 2016; Lasne 1984); cited from earlier work
[7] = from known documents (Kirkland 2016; Lasne 1984); cited from earlier work; remark: listed apart in the source
[8] = system: human iPS cell-derived T lymphocyte; assay: Division kinetics of human iPS cell-derived T lymphocyte stimulated with PHA (CytoB, CBPI; Comparative Example 2); type: cell-based; details: CytoB 24 hr
[9] = system: human peripheral blood-derived mononuclear cells PBMC (feeder cell, 35Gy X-ray); assay: Division kinetics of feeder cells alone under PHA stimulation (comparison control, Comparative Example 2); type: cell-based; details: feeder cell only, 5 μg/mL PHA, CytoB 24 hr
[10] = iPS cell line 2, 27 hr treatment, doses of Table 7, 300 metaphase cells, Fisher's exact test
[11] = proliferation stimulation for 66 hr
[12] = absence of feeder cells, 3 μg/mL PHA, 426 cells observed
[13] = coculture with feeder cells, 5 μg/mL PHA, 500 cells observed

O=P1(N(CCCl)CCCl)NCCCO1 (centres unmarked) [CPA, cyclophosphamide monohydrate]
judgment result obtained in this Example (in vitro micronucleus test) [1]: positive

CCOS(C)(=O)=O [EMS, ethyl methanesulfonate]
judgment result obtained in this Example (in vitro chromosomal aberration test) [2]: positive
judgment result obtained in this Example (in vitro comet assay) [3]: positive
judgment result obtained in this Example (in vitro micronucleus test) [1]: positive

C[C@H](CCC(=O)O)C[C@H](C)C[C@H](C)C(=O)/C=C(\O)[C@H](C)C[C@H](C)C/C=C/[C@@H](C)[C@@H](O)[C@@H](C)[C@@H](O)C[C@@H]1CC[C@@](C)([C@H]2CC[C@@](C)([C@@H](C)O)O2)O1 [Ionomycin]
proliferation of human iPS cell-derived T lymphocyte by proliferation stimulation [4]: does not proliferate

OC[C@@H](O)[C@@H](O)[C@H](O)[C@H](O)CO [MAN, D(−)-mannitol]
increase in frequency of chromosomal aberration ([2]; all doses (FIG. 12)): no statistically significant increase
judgment result obtained in this Example (in vitro chromosomal aberration test) [2, 10]: negative
increase in % tail DNA ([3]; all doses (FIG. 14)): no statistically significant increase
judgment result obtained in this Example (in vitro comet assay) ([3]; iPS cell line 2, 4 hr treatment, doses of Table 9, % tail DNA, Dunnett's test): negative
increase in frequency of micronucleus [1]: no statistically significant increase
judgment result obtained in this Example (in vitro micronucleus test) [1]: negative
judgment result expected from known information (in vitro micronucleus test) [5]: negative
judgment result expected from known information (in vitro chromosomal aberration test) [6]: negative
judgment result expected from known information (in vitro comet assay) [7]: negative

CO[C@@]12[C@H](COC(N)=O)C3=C(C(=O)C(C)=C(N)C3=O)N1C[C@@H]1N[C@@H]12 [MMC, mitomycin C]
judgment result obtained in this Example (in vitro chromosomal aberration test) [2, 10]: positive
judgment result obtained in this Example (in vitro micronucleus test) [1]: positive
judgment result expected from known information (in vitro chromosomal aberration test) [6]: positive

CCCCCCCCCCCCCC(=O)O[C@@H]1[C@@H](C)[C@@]2(O)[C@@H](C=C(CO)C[C@]3(O)C(=O)C(C)=C[C@@H]23)[C@@H]2C(C)(C)[C@]12OC(C)=O [PMA, phorbol 12-myristate 13-acetate]
luminescent signal (count) [4]: 5784 count
proliferation of human iPS cell-derived T lymphocyte by proliferation stimulation [4]: does not proliferate
proliferation rate [4]: 4.5%

Concanavalin A [Con A]
luminescent signal (count) ([4]; 5 μg/mL Con A, 66 hr, background subtracted): 10064 count
proliferation rate ([4]; 5 μg/mL Con A, 66 hr, percentage of signal at seeding): 7.8%
proliferation of human iPS cell-derived T lymphocyte by proliferation stimulation [4, 11]: does not proliferate

bleomycin sulfate [BLM]
judgment result obtained in this Example (in vitro micronucleus test) [1]: positive

phytohemagglutinin [PHA]
luminescent signal (count) ([4]; 1 μg/mL PHA, 66 hr, background subtracted): 10984 count
proliferation rate ([4]; 1 μg/mL PHA, 66 hr, percentage of signal at seeding): 8.5%
luminescent signal (count) ([4]; 5 μg/mL PHA, 66 hr, background subtracted): 15024 count
proliferation rate ([4]; 5 μg/mL PHA, 66 hr, percentage of signal at seeding): 11.7%
proliferation of human iPS cell-derived T lymphocyte by proliferation stimulation [4, 11]: does not proliferate
CBPI ([8]; absence of feeder cells, 3 μg/mL PHA): 1.39
binucleated cell number [8, 12]: 160
mononucleated cell number [8, 12]: 262
multinucleated cell number [8, 12]: 4
CBPI ([8]; coculture with feeder cells, 5 μg/mL PHA): 1.15
binucleated cell number [8, 13]: 71
mononucleated cell number [8, 13]: 426
multinucleated cell number [8, 13]: 3
CBPI [9]: 1.03
binucleated cell number ([9]; 500 cells observed): 11
mononucleated cell number ([9]; 500 cells observed): 488
multinucleated cell number ([9]; 500 cells observed): 1
